Legend:
Type in all cases: toxicity, cell-based
HEK-293T = assay: Incucyte cell viability with HEK293T; conditions: human, 10 µM, compound concentration 10 uM
U2OS = assay: Incucyte cell viability with U2OS; conditions: human, 10 µM, compound concentration 10 uM
Fibroblast = assay: Incucyte cell viability with human fibroblast; conditions: 10 µM, compound concentration 10 uM
Also: unitless GR value; below 1 slowed growth and below 0 cell loss.

Structure (SMILES)	Growth Rate (HEK-293T; 6 h, replicate number 1)	Growth Rate (HEK-293T; 12 h, replicate number 1)	Growth Rate (HEK-293T; 12 h, replicate number 2)	Growth Rate (HEK-293T; 18 h, replicate number 1)	Growth Rate (HEK-293T; 18 h, replicate number 2)	Growth Rate (HEK-293T; 24 h, replicate number 1)	Growth Rate (HEK-293T; 24 h, replicate number 2)	Growth Rate (U2OS; 24 h, replicate number 1)	Growth Rate (Fibroblast; 6 h, replicate number 2)	Growth Rate (Fibroblast; 12 h, replicate number 2)	Growth Rate (Fibroblast; 18 h, replicate number 2)	Growth Rate (U2OS; 0 h, replicate number 2)	Growth Rate (Fibroblast; 0 h, replicate number 2)	Growth Rate (U2OS; 0 h, replicate number 1)	Growth Rate (U2OS; 6 h, replicate number 1)	Growth Rate (U2OS; 12 h, replicate number 1)	Growth Rate (Fibroblast; 6 h, replicate number 1)	Growth Rate (Fibroblast; 18 h, replicate number 1)	Growth Rate (Fibroblast; 24 h, replicate number 1)	Growth Rate (Fibroblast; 24 h, replicate number 2)	further results
Cc1c(NC(=O)c2ccc(C(C)(C)C)cc2)cccc1-c1cn(C)c(=O)c(Nc2ccc(C(=O)N3CCOCC3)cc2)n1	0.48	0.38	0.51	0.53	0.35	0.63	0.48	0.97	-0.1	0.63	0.72										
CC1=C(C(=O)OCCO)[C@@H](c2ccc(C#N)cc2)NC(=O)N1c1cccc(C(F)(F)F)c1	0.61	0.73	0.75	0.68	0.71	0.67	0.97				0.92	0.55	-0.51								
O=C(CCCCCCc1ccccc1)c1ncc(-c2ccccn2)o1	0.7	0.79	0.88	0.76	0.88	0.8	0.97	0.87	0.12	0.63	0.85			0.55	0.84	0.58	0.4	0.96	0.93	0.84	Growth Rate (Fibroblast; 0 h, replicate number 1): -0.98
COc1ccccc1N1CCN(c2ncnc3c2cnn3-c2ccccc2)CC1	0.67	0.99	0.98					0.25		0.94			0	0.75		0.47	-0.03	0.39	0.48	0.91	Growth Rate (HEK-293T; 6 h, replicate number 2): 0.19; Growth Rate (U2OS; 12 h, replicate number 2): 0.93; Growth Rate (U2OS; 18 h, replicate number 1): 0.13; Growth Rate (U2OS; 18 h, replicate number 2): 1; Growth Rate (U2OS; 24 h, replicate number 2): 0.85; Growth Rate (Fibroblast; 12 h, replicate number 1): 0.42
CNc1nc(-c2cc(C(=O)N3CCN(Cc4ccc(Cl)cc4)CC3)c(Cl)cn2)cs1	0.91	0.62	0.01	0.62	0.14	0.69	0.23	0.37	-0.96	-0.28	-0.12	-0.41		-0.54	-0.33	0.1	-0.5	-0.06	0.23	0.18	Growth Rate (HEK-293T; 6 h, replicate number 2): -0.49; Growth Rate (U2OS; 6 h, replicate number 2): -0.21; Growth Rate (U2OS; 12 h, replicate number 2): 0.27; Growth Rate (U2OS; 18 h, replicate number 1): 0.4; Growth Rate (U2OS; 18 h, replicate number 2): 0.37; Growth Rate (U2OS; 24 h, replicate number 2): 0.65; Growth Rate (Fibroblast; 0 h, replicate number 1): -1; Growth Rate (Fibroblast; 12 h, replicate number 1): -0.19
Cc1cc(-c2ccnc(Nc3cnn(C)c3)n2)ccc1CNC(=O)N1CC(OC(C)C)C1	0.37	0.72		0.79		0.98		0.89					-0.87		0.99	0.8	0.47	0.97	0.75		Growth Rate (U2OS; 6 h, replicate number 2): 0.93; Growth Rate (U2OS; 18 h, replicate number 1): 0.98
Cn1cncc1-c1cn(-c2cccc(C(=O)Nc3cccc(C(F)(F)F)c3)c2)nn1	-0.32	-0.13	0.03	0.06	0.14	0.24	0.3	0.95	0.53	0.77	0.64	0.55			0.83			0.87	0.48	0.87	Growth Rate (HEK-293T; 6 h, replicate number 2): -0.41; Growth Rate (U2OS; 12 h, replicate number 2): 0.86; Growth Rate (U2OS; 18 h, replicate number 2): 0.89; Growth Rate (Fibroblast; 12 h, replicate number 1): 0.87
